In patent publication US20070060595A1, “Novel fused heterocyclic compound and use thereof” (priority 2003, published 2007):

Target: recombinant human JNK (JNK1, JNK2)
Test: JNK inhibitory activity, enzyme assay (phosphorylation of biotinylated ATF2, Alpha Screen detection)
Type: biochemical
Details: JNK isoform not stated
Experimental: 5 μL of kinase buffer (25 mM Tris-HCl (pH 7.5), 5 mM β-glycerophosphoric acid, 2 mM dithiothreitol, 0.1 mM Na3VO4, 10 mM MgCl2) including recombinant human JNK (JNK1: Upstate Biotechnology #14-327, JNK2: Upstate Biotechnology #14-329) was added to well of 384-well plate for fluorescence assay (5 μL) (JNK1: 20 μU/well, JNK2: 50 μU/well). Then, kinase buffer including the compound of the present invention was added into it to carry out incubation for 20 minutes at room temperature. Subsequently, substrate mixture prepared with kinase buffer [biotinylated ATF2 (5 μg/mL) (Upstate Biotechnology #14-432), adenosine triphosphate (JNK1 activity measurement: 2 μmol/L, JNK2 activity measurement: 5 μmol/L) (Cell Signaling Technology #9804), anti-phosphorylated ATF2 antibody (20-fold dilution) (Cell Signaling Technology #9221L)] was added to carry out enzyme reaction for 30 minutes at 30° C. […] The amount of complex between phosphorylated ATF2 and anti-phosphorylated ATF2 was measured with Alpha Screen™ Rabbit Detection Kit (Packard #6760607).
JNK inhibitory activity which is the effect of the compound of the present invention was calculated as inhibition ratio (%) by the following equation: Inhibition ratio(%)=[(AC−AX)/(Ac−AB)]×100
AB: measured value without enzyme;
AC: measured value with enzyme and without a test compound;
AX: measured value with enzyme and a test compound

| Structure (SMILES) | IC50 [nM] |
| --- | --- |
| Clc1cc(NCc2ccc3c(c2)OCO3)n2nccc2n1 [Example 1(1), N-(1,3-benzodioxol-5-ylmethyl)-5-chloropyrazolo[1,5-a]pyrimidin-7-amine] | 330 |
| COc1cc(CNc2cc(-c3ccsc3)nc3ccnn23)cc(OC)c1OC [Example 3, 5-thien-3-yl-N-(3,4,5-trimethoxybenzyl)pyrazolo[1,5-a]pyrimidin-7-amine] | 740 |
